Read-outs that look alike come from different tables or passages of the source.
How the values were obtained:
Dtymk = experiment: QPCR analysis of Dtymk knockdown in Lkb1-wt 634 cells; details: normalized to shGFP
[1] = test system: Lkb1-null versus Lkb1-wt cell lines; experiment: Large-scale pooled shRNA library screening (murine 40K pool); format: cell-based, mouse; details: for Hairpin-rank in pooled shRNA screen: Table 6; for # Hairpins 1000: number of the gene's hairpins ranked within 1000; for # Hairpins 5000: number of the gene's hairpins ranked within 5000; for # Hairpins 10000: number of the gene's hairpins ranked within 10000
Lkb1-null cells = experiment: Array-based viral infection and cell proliferation assay (validation), Lkb1-null; design: species or system mouse; details: for Growth of Lkb1-wt/Lkb1-null in array-based validation: Table 6; for Null ave-GR: validation, 5 days post infection, alamarBlue
Experimental: (§1) (C) Validation study. Relative viability of Lkb1-wt and Lkb1-null cells infected with 340 individual hairpins for 5 days. Genes of interest are highlighted by the colors indicated.
(§2) For array-based viral infection and assessment of proliferation, 2.5 μl virus was mixed with 250 cells in 100 μl medium containing 8 μg/ml polybrene per well in 96-well plates. The plates were spun at 2250 rpm/37° C. for 30 min. Immediately after spinning, supernatants were gently aspirated off and 100 μl fresh medium was added to each well of the 96-well plates. After 2 days incubation, medium was gently aspirated off and 100 fresh medium containing 3 μg/ml puromycin was added to each well of the 96-well plates. The plates were back to culture for additional 3 days and then the viable cells were monitored by alamarBlue (Invitrogen) assay according to manufacturer's instructions.
(§3) To identify Lkb1-null-selective essential genes, a synthetic lethal screen was performed using a pooled 40K murine shRNA lentiviral library for each of the Lkb1-wt and Lkb1-null cell lines described above. Relative abundance of shRNAs in each cell line sample was determined by deep-sequencing analysis, and for every shRNA, a log 2 Fold Change (log 2FC) value was calculated from the difference in relative abundance at a late time point after infection versus the initial shRNA-infected sample. An unsupervised hierarchical clustering analysis of the ranked hairpins from the triplicate pooled shRNA library screens of Lkb1-wt and Lkb1-null mouse cancer cells is shown in FIG. 1A. […] The ranked hairpins were collapsed by using two methods, a RIGER analysis (KS t-test based statistics) and a weighted second best analysis to rank genes that selectively impaired proliferation/viability in Lkb1-null cells. A union of 344 genes, identified by the top 100 individual hairpins for 88 genes (Table 1) and the top 200 genes from both the KS (Table 2) and weighted second best (Table 3), was nominated as the initial prioritized list (FIG. 1B). 340 shRNAs, targeting 70 candidate genes from this prioritized list, were chosen for validation (Table 4). The 70 genes consisted of the top 10 candidates from the KS analysis, as well as 60 others involved in a range of biological processes in an attempt to represent all biological categories in the validation process. Validation was performed in an array format with an assay of relatively short duration (5 days post infection) compared to the primary pooled screen (28 days), which should be a more stringent selection, as it required the anti-proliferative effects to manifest in a short time period. […] Dtymk, Check1, and Pdhb are the top 3 candidate genes, each with 3 hairpins that scored in the validation assay (FIG. 1C).

Lkb1-wt cells = experiment: Array-based viral infection and cell proliferation assay (validation), Lkb1-wt; design: species or system mouse; details: 5 days post infection, alamarBlue
Experimental: as §1, §2, §3

Chek1 = details: Lkb1-wt 634 cells, normalized to shGFP
[2] = test system: Lkb1-wt (634, 855, and 857) cells; experiment: Cell proliferation assay with CHEK1 inhibitors (CCK-8), Lkb1-wt; format: cell-based, mouse; details: read-out: 50% growth inhibition (GI50) concentration
[3] = test system: Lkb1-null (t2, t4, and t5) cells; experiment: Cell proliferation assay with CHEK1 inhibitors (CCK-8), Lkb1-null; format: cell-based, mouse; details: for GI50: read-out: 50% growth inhibition (GI50) concentration
[4] = test system: Lkb1-null t2, t4, and t5 cells; experiment: dTTP rescue of shDtymk growth phenotype; format: cell-based, mouse; details: 150 μM dTTP
Experimental: (B) Morphology of Lkb1-null t2, t4, and t5 cells transduced with shGFP or shDtymk-1 and then cultured with or without additional 150 μM dTTP in medium for 3 days.
(§4) Next it was determined whether adding dTTP to the media could rescue cell death after Dtymk knockdown. Three Lkb1-null cell lines were transduced with shGFP or shDtymk-1 and then selectively cultured in puromycin medium in the presence or absence of 150 μM dTTP for 3 days (Taricani et al., 2010). […] Expression of DTYMK in the shDtymk-1 cells was not determined because the remaining cells were too few for RNA and protein extraction (FIG. 4B).

[5] = test system: Lkb1-wt and Lkb1-null cells; experiment: 3H-dTTP incorporation into genomic DNA; format: cell-based, mouse; details: 0.25 μCi 3H-dTTP, 6 h
Experimental: Lkb1-wt and Lkb1-null cells were plated into 96 well plates with 4000 cells/well in 100 μL medium for overnight culturing then incubated with 0.25 μCi ^3H-dTTP (Perkin Elmer, NET221H250UC) for 6 h and used 0.25 μCi ^3H-deoxythymidine (Perkin Elmer, NET221H250UC) as positive and 0.25 μCi^3H-dTTP/non-cells (medium alone) as negative controls. Cells were washed with PBS, trypsinized, and DNA was captured with a cell harvester on glass fiber filters Filtermat A (Perkin Elmer, #1450-421), which was then placed into a liquid scintillation counting container for counting on a scintillation beta-counter. The data represent mean±SD for 6 replicates.
as §4

[6] = test system: Lkb1-wt (634, 855, and 857) and Lkb1-null (t2, t4, and t5) cells; experiment: Proliferation assay of shRNA-transduced cells (CellTiter-Glo); format: cell-based, mouse; details: in vitro, puromycin 3 μg/ml
Experimental: Viable cells were measured daily using Promega's CellTiter-Glo Assay. Two independent sets of transductions into the 6 cell lines were shown: the first set used shGFP, shDtymk-1, and shChek1-4 (upper panels), and the second set used shGFP, shDtymk-3, and shChek1-1 (lower panels).
Lentiviral production and target cell transduction were performed according to previously description (Moffat et al., 2006). Briefly, 293T cells were co-transfected with pLenti-vector, pCMV-dR8.74psPAX2, and pMD2.G using TransIT-LT1 transfection reagent (Mirus). Thirty-six h after transfection, the supernatant was harvested and spun at 3000 rpm/4° C. for 10 min, and then incubated with target cells in the presence of 8 μg/ml polybrene (Sigma) for 24 h. Two days after infection, the cells were collected for further analysis as indicated in the presence of 3 μg/ml Puromycin (Invitrogen).
Cells were plated into 96-well plates at 2000 cells per well in 100 μl, with addition of puromycin at 3 μg/ml for shRNA lentivirus infected cells, or with addition of variable doses of drug for drug treatment effects. Viable cells were measured daily or for a period of up to 3 days either by CellTiter-Glo Luminescent Cell Viability Assay (Promega) or by Cell Counting Kit-8 (CCK-8) (Dojindo) according to the manufacturer's instructions. All proliferation assays were performed in triplicate wells.
Depletion of DTYMK and CHEK1 was confirmed by Western blot (FIG. 11B).

[7] = test system: Lkb1-wt (634 and 857) and Lkb1-null (t2 and t4) tumors; experiment: Tumor development of shRNA-transduced cells implanted into athymic nude mice; format: in vivo; details: doxycycline treatment for 3 weeks
Experimental: (C) 1×10^6 Lkb1-wt (634 and 857) and Lkb1-null (t2 and t4) cells transduced with the indicated shRNA were implanted into athymic nude mice for 3 weeks. Tumor volume (mm^3) was calculated as […]. The data represent mean±SD for 4 mice. Lkb1-wt 634 and Lkb1-null t4 tumors with the indicated shRNAs were shown (D).
To investigate whether reduced expression of Dtymk or Chek1 inhibited tumor development in vivo, Lkb1-wt (634 and 857) and Lkb1-null (t2 and t4) cells transduced with pTetOn-shGFP, pTetOn-shDtymk-3, or pTetOn-shChek1-4 were implanted into athymic nude mice.

γH2AX = experiment: Western blot analysis of γH2AX after CHEK1 inhibitor treatment; format: cell-based; details: 3 h at the GI50 concentration
[8] = gene-level KS score over all hairpins of the gene (Table 2, Top 200 genes by KS), only the first hairpin id is printed
[9] = rank of the gene by NES, KS analysis

Compound | mRNA remaining (by qPCR) (Dtymk) | Hairpin-rank in pooled shRNA screen [1] | Growth of Lkb1-wt/Lkb1-null in array-based validation (Lkb1-null cells) | Null ave-GR (Lkb1-null cells) | WT ave-GR (Lkb1-wt cells) | mRNA remaining (by qPCR) (Chek1) | other results
shDtymk-2: shRNA hairpin CTTCTCTGCAAACCGCTGGGA targeting Mouse Dtymk | 66.70% | 19621 | 1.18 | 1.03 | 1.21 | – | –
shChek1-5: shRNA hairpin GCAACGGTATTTCGGCATAAT targeting Mouse Chek1 | – | 23858 | 1.2 | 0.96 | 1.15 | 40.70% | –
AZD7762 | – | – | – | – | – | – | GI50 [2]: 275 nM; inhibition of Lkb1-null cells stronger than Lkb1-wt cells [3]: 3 fold; GI50 [3]: 90 nM
Cc1cn([C@H]2C[C@H](O)[C@@H](COP(=O)(O)OP(=O)(O)OP(=O)(O)O)O2)c(=O)[nH]c1=O [dTTP] | – | – | – | – | – | – | toxicity of dTTP to shGFP-transduced cells [4]: not to be toxic; growth of shDtymk-transduced Lkb1-null cells with exogenous dTTP ([4]; 3 days): grew as well as shGFP-transduced cells; passage of radiolabeled dTTP through the cell membrane (incorporation into genomic DNA) [5]: passed through the cell membrane
shChek1-1: shRNA hairpin GCTGTGAATAGAATAACTGAA targeting Mouse Chek1 | – | 327 | 2.14 | 0.73 | 1.57 | 35.50% | cell growth compared to shGFP control, Lkb1-null versus Lkb1-wt [6]: inhibited Lkb1-null cell growth more strongly than the growth of Lkb1-wt cells
shChek1-3: shRNA hairpin CCCATGTAGTAGTATCACTTT targeting Mouse Chek1 | – | 23815 | 1.64 | 0.27 | 0.45 | 42.10% | NES [1, 8]: 1.57; NES ([1]; gene-level normalized enrichment score over all hairpins of the gene): 1.520; Gene rank ([1]; gene-level rank by NES): 119; # Hairpins 500 ([1]; number of the gene's hairpins ranked within 500): 1; # Hairpins 1000 [1]: 1; # Hairpins 5000 [1]: 1; # Hairpins 10000 [1]: 1; # HP 500 ([1]; number of the gene's hairpins ranked within top 500): 1; # HP 1000 ([1]; number of the gene's hairpins ranked within top 1000): 1; # HP 5000 ([1]; number of the gene's hairpins ranked within top 5000): 1; # HP 10000 ([1]; number of the gene's hairpins ranked within top 10000): 1; Gene rank [1, 9]: 61
shChek1-4: shRNA hairpin GTGGAAGAAGAGTTGTATGAA targeting Mouse Chek1 | – | 26693 | 2.31 | 0.30 | 0.70 | 30.20% | tumor growth of Lkb1-null tumors expressing shRNA versus shGFP and Lkb1-wt tumors [7]: grew significantly slower; cell growth compared to shGFP control, Lkb1-null versus Lkb1-wt [6]: inhibited Lkb1-null cell growth more strongly than the growth of Lkb1-wt cells
shDtymk-4: shRNA hairpin GAAATCGGCAAGCTTCTGAAT targeting Mouse Dtymk (also Human DTYMK) | 51.10% | 28546 | 1.67 | 0.51 | 0.85 | – | –
shDtymk-3: shRNA hairpin ACGGAACTAGAGGATCACTCT targeting Mouse Dtymk | 27.80% | 100 | 2.96 | 0.28 | 0.83 | – | tumor growth of Lkb1-null tumors expressing shRNA versus shGFP and Lkb1-wt tumors [7]: grew significantly slower; Hairpin rank ([1]; Top 100 shRNAs, ranked hairpin list of selectively essential hairpins in Lkb1-null background (log2FC)): 98; cell growth compared to shGFP control, Lkb1-null versus Lkb1-wt [6]: inhibition was stronger in Lkb1-null cells
O=c1[nH]c2ccc(Cl)cc2c(N[C@@H]2CN3CCC2CC3)c1-c1nc2ccccc2[nH]1 [CHIR124] | – | – | – | – | – | – | phosphorylation of H2AX (Western blot) (γH2AX): induced phosphorylation of H2AX; GI50 ([2]; Lkb1-wt cells, mean, 3 days): 56 nM; inhibition of Lkb1-null cells stronger than Lkb1-wt cells ([3]; GI50 Lkb1-wt versus Lkb1-null): 3 fold; GI50 ([3]; Lkb1-null cells, mean, 3 days): 19 nM
shChek1-2: shRNA hairpin GCCACGAGAATGTAGTGAAAT targeting Mouse Chek1 | – | 14869 | 1.26 | 0.85 | 1.07 | 43.90% | –
shDtymk-5: shRNA hairpin CAAGACCACGCAGGCCCTCAA targeting Mouse Dtymk (also Human DTYMK) | 77.90% | 5760 | 1.05 | 1.06 | 1.11 | – | NES [1, 8]: 1.53; # Hairpins 1000 [1]: 1; # Hairpins 5000 [1]: 1; # Hairpins 10000 [1]: 2; Gene rank [1, 9]: 103

Source: patent publication US20140314791A1, “METHODS OF TREATING CANCER” (DANA-FARBER CANCER INSTITUTE, INC., priority 2012, published 2014)
